Test results from ChEMBL document CHEMBL1126166, “Synthesis of the -phosphonic acid analogue of kainic acid” (Bioorg Med Chem Lett, 1992).

Biological target: Glutamate receptor ionotropic, kainate (Rattus norvegicus) (UniProt P22756+Q01812+P42260+P42264+Q63273)
Assay: Compound was evaluated for the inhibition of kainate receptor binding at 10 uM
Type: protein-complex assay

inhibition: 77%
Compound: C=C(C)[C@H]1CN[C@H](C(=O)O)[C@H]1CP(=O)(O)O
